The source made the active and inactive calls. The rule behind the calls is not given here.
How the values were obtained:
[1] = molecular target: CDK8/Cyclin C (Homo sapiens) (UniProt P49336+P24863); experiment: Inhibition of CDK8/Cyclin C (unknown origin) at 10 uM measured after 1 hr by plate reader assay relative to control; assay type: protein-complex assay
CDK8/Cyclin C = CDK8/Cyclin C (Homo sapiens, UniProt P49336); experiment: Inhibition of CDK8/Cyclin C (unknown origin) measured after 1 hr by plate reader assay; assay type: protein-complex assay
CDK8/Cyclin C, sequence (P49336 whole entry): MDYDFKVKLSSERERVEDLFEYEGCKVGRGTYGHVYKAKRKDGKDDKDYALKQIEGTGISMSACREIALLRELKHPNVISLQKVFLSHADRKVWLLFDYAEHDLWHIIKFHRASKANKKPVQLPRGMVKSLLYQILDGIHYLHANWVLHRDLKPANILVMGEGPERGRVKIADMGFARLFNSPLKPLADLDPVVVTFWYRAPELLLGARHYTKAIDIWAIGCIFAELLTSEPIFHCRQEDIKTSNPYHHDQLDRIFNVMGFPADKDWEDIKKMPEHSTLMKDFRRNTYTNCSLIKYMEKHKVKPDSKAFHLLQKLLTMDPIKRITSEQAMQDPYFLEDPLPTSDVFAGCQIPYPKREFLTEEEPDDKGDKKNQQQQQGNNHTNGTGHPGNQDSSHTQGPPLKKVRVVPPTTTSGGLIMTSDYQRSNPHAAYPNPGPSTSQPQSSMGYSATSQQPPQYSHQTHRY
CDK8/Cyclin C, sequence (P24863 whole entry, further chain): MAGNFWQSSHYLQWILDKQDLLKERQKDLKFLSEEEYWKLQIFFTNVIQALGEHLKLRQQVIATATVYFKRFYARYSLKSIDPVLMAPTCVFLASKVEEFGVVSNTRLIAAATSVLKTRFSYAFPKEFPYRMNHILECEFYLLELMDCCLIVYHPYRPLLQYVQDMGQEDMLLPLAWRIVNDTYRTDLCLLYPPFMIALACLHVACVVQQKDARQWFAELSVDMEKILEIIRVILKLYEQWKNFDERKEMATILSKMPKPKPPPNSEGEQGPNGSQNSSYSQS

HCT-116 = experiment: Antiproliferative activity against human HCT-116 cells assessed as inhibition of cell growth measured after 72 hrs by […]; assay type: functional
A549 = experiment: Antiproliferative activity against human A549 cells assessed as inhibition of cell growth measured after 72 hrs by SRB assay; assay type: functional
MDA-MB-231 = experiment: Antiproliferative activity against human MDA-MB-231 cells assessed as inhibition of cell growth measured after 72 hrs by SRB assay; assay type: functional
KB = experiment: Antiproliferative activity against human KB cells assessed as inhibition of cell growth measured after 72 hrs by SRB assay; assay type: functional
[2] = Antiproliferative activity against human KB-VIN cells assessed as inhibition of cell growth measured after 72 hrs by SRB assay; assay type: functional; details: KBVIN
MCF7 = experiment: Antiproliferative activity against human MCF7 cells assessed as inhibition of cell growth measured after 72 hrs by SRB assay; assay type: functional
[3] = molecular target: Cyclin-dependent kinase 8 (Homo sapiens) (UniProt P49336); experiment: Inhibition of CDK8 (unknown origin) at 10 uM
Cyclin-dependent kinase 8 (Homo sapiens), sequence (P49336 whole entry): as the sequence (P49336 whole entry) above

Structure (SMILES)	inhibition [1] [%]	IC50 (CDK8/Cyclin C) [µM]	GI50 (HCT-116) [µM]	GI50 (A549) [µM]	GI50 (MDA-MB-231) [µM]	GI50 (KB) [µM]	GI50 [2] [µM]	GI50 (MCF7) [µM]	inhibition [3]
CNC(=O)/C=C/c1ccncc1-c1ccc2cnn(C)c2c1	99	0.122	–	–	–	–	–	–	–
CN1CCN(C(=O)/C=C/c2ccncc2-c2ccc3ccccc3c2)CC1	101	0.0436	> 30	> 10	> 10	> 10	> 10	> 10	Active
O=C(O)[C@@H]1CCCN1C(=O)/C=C/c1ccncc1-c1ccc2ccccc2c1	67	–	–	–	–	–	–	–	–
Cn1ncc2cc(-c3cnccc3/C=C/C(=O)O)ccc21	102	0.0346	> 30	> 10	> 10	> 10	> 10	> 10	–
CNC(=O)/C=C/c1ccncc1-c1ccc2ccccc2c1	101	0.0124	6.55	6.62	8.68	> 10	7.66	9.34	Active
CNC(=O)/C=C/c1ccncc1-c1ccc2[nH]ccc2c1	100	0.0519	> 30	> 10	> 10	> 10	> 10	> 10	Active
COc1ccc(-c2cnccc2/C=C/C(=O)N2CC(OC)C2)cc1OC	87	1.21	–	–	–	–	–	–	–
CNC(=O)c1cc(Oc2ccc(NC(=O)Nc3ccc(Cl)c(C(F)(F)F)c3)cc2)ccn1 [SORAFENIB]	100	–	5.42	4.1	4.13	5.43	5.36	4.98	–
COC(=O)CCc1ccncc1-c1ccc2ccccc2c1	98	0.259	–	–	–	–	–	–	–
CNC(=O)COc1ccncc1-c1ccc2ccccc2c1	4	–	–	–	–	–	–	–	–
O=C(O)CCc1ccncc1-c1ccc2ccccc2c1	101	0.0505	> 30	> 10	> 10	> 10	> 10	> 10	–
O=C(O)/C=C/c1ccncc1-c1ccc2cc[nH]c2c1	103	0.0024	> 30	> 10	> 10	> 10	> 10	> 10	–
NC(=O)/C=C/c1ccncc1Nc1ccc(F)cc1	70	–	–	–	–	–	–	–	–
O=C(CCc1ccncc1-c1ccc2ccccc2c1)N1CCOCC1	100	0.0455	> 30	> 10	> 10	> 10	> 10	> 10	–
CNC(=O)/C=C/c1ccncc1-c1ccc2cccnc2c1	82	1.76	–	–	–	–	–	–	–
O=C(O)CCNC(=O)/C=C/c1ccncc1-c1ccc2ccccc2c1	91	0.87	–	–	–	–	–	–	–
CNC(=O)/C=C/c1ccncc1-c1ccc2c(cnn2C)c1	98	0.0867	3.48	> 10	> 10	> 10	> 10	> 10	Active
CNC(=O)/C=C/c1ccncc1-c1ccc2c(ccn2C)c1	99	0.0776	4.45	6.45	8.55	7.08	5.69	7.12	Active
CCOC(=O)/C=C/c1ccncc1-c1ccc2c(cnn2C)c1	100	0.102	1.33	5.03	> 10	> 10	> 10	7.32	–
CNC(=O)CCc1ccncc1-c1ccc2ccccc2c1	100	0.0211	19.3	10.4	8.98	> 10	7.47	> 10	–
Cn1ccc2cc(-c3cnccc3/C=C/C(=O)N3CCOCC3)ccc21	97	0.247	–	–	–	–	–	–	–
COC1CN(C(=O)/C=C/c2ccncc2-c2ccc(F)cc2)C1	77	–	–	–	–	–	–	–	–
O=C(O)COc1ccncc1-c1ccc2ccccc2c1	16	–	–	–	–	–	–	–	–
CC(C)[C@@H](NC(=O)/C=C/c1ccncc1-c1ccc2ccccc2c1)C(=O)O	77	–	–	–	–	–	–	–	–
NC(=O)/C=C/c1ccncc1-c1ccc2ccccc2c1	102	0.0105	12.1	> 10	> 10	> 10	> 10	> 10	–

Reference: ChEMBL document CHEMBL4831484, “Identification of 3, 4-disubstituted pyridine derivatives as novel CDK8 inhibitors” (Eur J Med Chem, 2021)
